Values joined by “and” are separate entries in the source; they are usually repeats but may differ in a detail not shown here. Equal entries are not always repeated. Active and inactive are the calls of the source. Where only a bound is given, the exact number is not on record here.

From ChEMBL document CHEMBL1201862, “PubChem BioAssay data set” (2004) come the findings set out here.

Some targets named below: Cytochrome P450 2C9 (Homo sapiens, UniProt P11712); Cytochrome P450 3A4 (Homo sapiens, UniProt P08684); Cytochrome P450 2D6 (Homo sapiens, UniProt P10635).
The target of the next data set is Cytochrome P450 2C19 (Homo sapiens, UniProt P33261). Description: Cytochrome panel assay with activity outcomes. Panel member name: p450-cyp2c19 Compounds with AC50 equal or less than 10 uM are considered active. The format is functional.
Chain of Cytochrome P450 2C19 (P33261 whole entry): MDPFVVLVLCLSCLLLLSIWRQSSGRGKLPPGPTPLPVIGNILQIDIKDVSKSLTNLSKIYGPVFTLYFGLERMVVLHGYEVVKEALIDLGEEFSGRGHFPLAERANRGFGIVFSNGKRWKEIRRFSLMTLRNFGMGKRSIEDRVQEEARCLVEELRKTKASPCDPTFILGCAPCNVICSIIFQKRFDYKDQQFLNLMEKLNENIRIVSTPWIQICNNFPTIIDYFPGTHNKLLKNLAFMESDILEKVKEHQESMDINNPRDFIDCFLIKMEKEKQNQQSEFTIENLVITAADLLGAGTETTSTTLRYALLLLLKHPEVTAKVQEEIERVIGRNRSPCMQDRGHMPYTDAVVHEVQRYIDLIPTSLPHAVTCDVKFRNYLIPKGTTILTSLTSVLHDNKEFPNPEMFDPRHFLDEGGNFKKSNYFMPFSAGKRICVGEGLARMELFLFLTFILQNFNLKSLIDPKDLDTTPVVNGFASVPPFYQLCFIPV
The next data set deals with T1, Cytochrome P450 1A2 (Homo sapiens, UniProt P05177).
T1 sequence (P05177 whole entry): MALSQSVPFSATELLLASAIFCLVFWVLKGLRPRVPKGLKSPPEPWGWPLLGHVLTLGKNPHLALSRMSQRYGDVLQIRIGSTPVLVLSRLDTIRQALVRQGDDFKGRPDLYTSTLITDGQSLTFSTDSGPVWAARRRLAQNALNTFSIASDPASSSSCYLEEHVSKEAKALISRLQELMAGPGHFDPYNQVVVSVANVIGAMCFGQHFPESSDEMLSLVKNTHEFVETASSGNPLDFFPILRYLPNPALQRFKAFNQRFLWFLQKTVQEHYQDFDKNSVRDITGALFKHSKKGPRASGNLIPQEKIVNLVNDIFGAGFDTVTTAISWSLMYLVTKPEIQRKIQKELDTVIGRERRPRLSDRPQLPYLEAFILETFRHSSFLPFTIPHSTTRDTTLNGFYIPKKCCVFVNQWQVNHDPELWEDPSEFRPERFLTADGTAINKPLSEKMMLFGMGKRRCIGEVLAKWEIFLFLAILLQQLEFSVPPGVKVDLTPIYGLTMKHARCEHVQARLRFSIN

In data set [1] the target is T2, Corticotropin-releasing factor receptor 2/Corticotropin-releasing factor-binding protein (Homo sapiens, UniProt P24387+Q13324).
T2 sequence (Q13324 whole entry): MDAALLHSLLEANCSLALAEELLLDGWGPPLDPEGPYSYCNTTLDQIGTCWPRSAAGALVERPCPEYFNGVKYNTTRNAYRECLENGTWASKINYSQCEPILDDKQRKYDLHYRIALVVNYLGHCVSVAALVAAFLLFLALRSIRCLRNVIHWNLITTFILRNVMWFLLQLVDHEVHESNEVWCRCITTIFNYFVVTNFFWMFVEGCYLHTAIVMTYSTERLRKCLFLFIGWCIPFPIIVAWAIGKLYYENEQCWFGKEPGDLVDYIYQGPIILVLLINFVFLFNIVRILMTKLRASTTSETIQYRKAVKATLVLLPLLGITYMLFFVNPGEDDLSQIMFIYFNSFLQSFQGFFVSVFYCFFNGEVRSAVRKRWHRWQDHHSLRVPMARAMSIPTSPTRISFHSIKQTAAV
T2 sequence (P24387 whole entry): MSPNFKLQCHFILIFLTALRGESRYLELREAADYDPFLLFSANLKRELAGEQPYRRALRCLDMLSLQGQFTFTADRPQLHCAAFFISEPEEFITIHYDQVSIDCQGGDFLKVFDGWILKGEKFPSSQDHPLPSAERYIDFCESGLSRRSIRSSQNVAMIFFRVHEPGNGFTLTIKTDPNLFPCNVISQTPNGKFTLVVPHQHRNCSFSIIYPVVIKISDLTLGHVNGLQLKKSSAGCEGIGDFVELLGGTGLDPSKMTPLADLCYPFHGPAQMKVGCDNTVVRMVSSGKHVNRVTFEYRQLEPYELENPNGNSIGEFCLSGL
Description: activators of CRF receptor 2 with binding protein – uHTS hits, confirmation (AID 602473). The following applies: read-out: EC50_Mean. The format is functional.

Data set [2] concerns the target T2, Corticotropin-releasing factor receptor 2/Corticotropin-releasing factor-binding protein. Put plainly: Dose Response confirmation of uHTS hits for small molecule antagonists of the CRF-binding protein and CRF-R2 receptor complex. The format is functional. The following applies: read-out: IC50_Mean.
Data set [3] in a line: Trypanosoma cruzi growth suppression in host cells – NIH3T3 host cells, beta-gal luminescence, confirmation (AID 2044).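 Note: intracellular parasites grown in NIH/3T3 mouse fibroblasts as host cells; luminescent beta-galactosidase reporter signal from transgenic T. cruzi replicating inside host cells; inhibitors lower the luminescence signal.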 The format is functional, cell-based.
A short description of data set [4]: NIH3T3 cell viability loss – ATP luminescence, mouse fibroblasts, counter-screen, dose response (AID 2010).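 Note: cells exposed to compound for about 90 hours before reading.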 The format is functional, cell-based.
A short description of data set [5]: Luminescence Cell-Based Dose Response HTS to Identify Inhibitors of 5'UTR Stem-Loop Driven Prion Protein mRNA Translation in H4 Neuroglioblastoma Cells. [Related pubchem assays: 1827 (Project Summary), 1813 (Primary HTS)]. In kind it is functional.
Data set [6] is described as follows: luciferase reporter signal suppression in cells – H4 neuroglioma cells, luminescence, dose response (AID 1990). In kind it is functional, cell-based. On the technique in general: In a reporter assay the amount or activity of a reporter protein is the signal.
A short description of data set [7]: alpha-synuclein stem-loop luciferase translation blockers – H4 neuroglioma cells, luminescence, confirmation (AID 1988). In kind it is functional, cell-based.

Chain of Cytochrome P450 2D6 (P10635 whole entry): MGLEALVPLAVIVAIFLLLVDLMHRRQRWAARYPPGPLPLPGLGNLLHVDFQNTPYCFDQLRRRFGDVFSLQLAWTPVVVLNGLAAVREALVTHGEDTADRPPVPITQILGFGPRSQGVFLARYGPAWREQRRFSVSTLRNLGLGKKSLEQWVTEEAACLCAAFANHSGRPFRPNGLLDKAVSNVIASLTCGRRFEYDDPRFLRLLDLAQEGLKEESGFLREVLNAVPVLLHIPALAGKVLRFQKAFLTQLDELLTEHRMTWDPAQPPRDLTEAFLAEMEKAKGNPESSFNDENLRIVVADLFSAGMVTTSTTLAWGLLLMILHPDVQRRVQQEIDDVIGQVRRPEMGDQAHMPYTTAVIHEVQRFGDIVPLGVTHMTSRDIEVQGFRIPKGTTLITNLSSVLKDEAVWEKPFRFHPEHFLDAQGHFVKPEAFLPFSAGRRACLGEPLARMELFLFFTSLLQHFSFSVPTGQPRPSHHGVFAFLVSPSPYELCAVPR
Chain of Cytochrome P450 3A4 (P08684 whole entry): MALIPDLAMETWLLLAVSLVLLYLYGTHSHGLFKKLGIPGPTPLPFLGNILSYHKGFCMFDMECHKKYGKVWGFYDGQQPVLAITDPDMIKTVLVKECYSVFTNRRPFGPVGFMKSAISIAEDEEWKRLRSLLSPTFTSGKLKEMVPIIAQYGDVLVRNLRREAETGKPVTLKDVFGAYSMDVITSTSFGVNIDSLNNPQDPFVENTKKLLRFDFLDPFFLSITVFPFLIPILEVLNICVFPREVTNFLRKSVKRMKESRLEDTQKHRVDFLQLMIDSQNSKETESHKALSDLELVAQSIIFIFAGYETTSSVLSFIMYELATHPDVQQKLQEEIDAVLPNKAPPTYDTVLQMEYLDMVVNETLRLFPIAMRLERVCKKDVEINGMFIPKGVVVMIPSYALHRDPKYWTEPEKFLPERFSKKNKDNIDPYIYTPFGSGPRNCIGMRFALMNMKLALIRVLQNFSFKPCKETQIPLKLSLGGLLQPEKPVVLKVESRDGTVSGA
Chain of Cytochrome P450 2C9 (P11712 whole entry): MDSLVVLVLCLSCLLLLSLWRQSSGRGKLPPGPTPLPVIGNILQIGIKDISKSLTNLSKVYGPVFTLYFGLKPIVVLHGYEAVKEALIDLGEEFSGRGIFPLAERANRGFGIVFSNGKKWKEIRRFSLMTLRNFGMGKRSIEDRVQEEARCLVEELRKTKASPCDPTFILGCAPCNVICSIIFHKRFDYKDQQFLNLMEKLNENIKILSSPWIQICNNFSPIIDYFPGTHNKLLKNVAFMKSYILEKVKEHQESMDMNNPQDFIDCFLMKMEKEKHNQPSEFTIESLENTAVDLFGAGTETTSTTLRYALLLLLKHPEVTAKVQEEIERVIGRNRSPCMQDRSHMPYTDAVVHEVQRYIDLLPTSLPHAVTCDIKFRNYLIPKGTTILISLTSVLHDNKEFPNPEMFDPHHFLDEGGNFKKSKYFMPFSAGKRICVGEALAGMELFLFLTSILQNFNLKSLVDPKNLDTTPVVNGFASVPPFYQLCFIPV

As for `CCNc1ncc2nc(-c3cccs3)c(=O)n(Cc3cccs3)c2n1`, the AC50 is 10 µM (inconclusive) on Cytochrome P450 2C19 (read-out: AC50) and 39.8 µM (inconclusive) at Cytochrome P450 2C9.
For `O=c1c2c(n3cnnc3n1-c1ccccc1)-c1ccccc1CC21CCCCC1`, the AC50 result was “inconclusive” at Cytochrome P450 2C19 and 15.8 µM (inconclusive) at Cytochrome P450 3A4.
Regarding `Cc1cc(NC(=O)CSc2ccc3nnc(-c4ccc(F)cc4)n3n2)no1`, the AC50 was 14.1 µM (inconclusive) at Cytochrome P450 3A4 and 25.1 µM (inconclusive) at Cytochrome P450 2C9.
Take `O=C(c1ccncc1)N1CCC2(CC1)CCN(c1ccccn1)CC2`: the AC50 was 1 µM (inconclusive) at Cytochrome P450 2C19 (read-out: AC50), 12.6 µM (inconclusive) at Cytochrome P450 1A2 and 31.6 µM (inconclusive) on Cytochrome P450 2D6.
`COC(=O)c1c(C)ccc2c(O)c3c(cc12)C(=O)c1c2c(cc(O)c1C3=O)[C@@]1(C)O[C@@](C)(O2)[C@@H](O)[C@H](N(C)C)[C@H]1O`: the AC50 at Cytochrome P450 2C19 (read-out: AC50) is 3.98 µM (inconclusive); on Cytochrome P450 2C9, 2.51 µM (inconclusive); on Cytochrome P450 1A2 it was 5.01 µM (inconclusive).
As for `N#Cc1cccc(-c2nc(Nc3ccncc3)c3ccccc3n2)c1`, the AC50 is 0.501 µM (inconclusive) at Cytochrome P450 3A4 and 1.58 µM (inconclusive) on Cytochrome P450 2C9.
As to `COc1ccc(OC)c(N(CC(=O)N2CCc3ccccc3C2)S(C)(=O)=O)c1`, the AC50 at Cytochrome P450 2C19 (read-out: AC50) is 11.2 µM (inconclusive); on Cytochrome P450 2C9, 12.6 µM (inconclusive); at Cytochrome P450 1A2, 15.8 µM (inconclusive).
`C[n+]1cccc(CNC(=O)C=NO)c1`: the half-maximal activity concentration (AC50) at Cytochrome P450 2C19 (read-out: AC50) is 10 µM (inconclusive).
Regarding `CCOC(=O)N1CCN(C(=O)c2ccc3nc(SCc4ccc(F)cc4)n(C)c3c2)CC1`, on Cytochrome P450 3A4, the AC50 is 39.8 µM (inconclusive). The EC50 in data set [1] was > 53 µM (inactive). Also, the IC50 in data set [2] was > 47.1 µM (inactive).
With `CO[C@@H]1/C=C\CC(=O)N[C@@H](C)C(=O)OC[C@@H](OC)[C@H](C)/C=C\CC(=O)OC[C@H]1C`, the AC50 at Cytochrome P450 3A4 is 3.98 µM (inconclusive).
The same measure, in the same setting: the result for `CN(C)Cc1ccccc1-c1nccc(N(C)Cc2ccco2)n1` reads 31.6 µM (inconclusive); that for `CSC1=N/C(=C\c2ccc3c(c2)OCO3)C(=O)S1`, 7.94 µM (inconclusive).
For the compound `O=C(CCn1nc(-c2ccc(Cl)cc2)c2ccccc2c1=O)NCCN1CCOCC1`, the results for the AC50 on Cytochrome P450 2C19 (read-out: AC50), on Cytochrome P450 2C9 and on Cytochrome P450 2D6 were 28.2 µM (inconclusive), 17.8 µM (inconclusive) and 15.8 µM (inconclusive), respectively.
`COc1cccc(Cn2c(=O)c(-c3cccc(F)c3)nc3cncnc32)c1`: the figures for the AC50 on Cytochrome P450 3A4 and on Cytochrome P450 2D6 were 7.94 µM (inconclusive) and 20 µM (inconclusive), respectively.
On to `O=C1N=C(N2CCOCC2)S/C1=C/c1cccs1`, for which the AC50 at Cytochrome P450 2C19 (read-out: AC50) was 25.1 µM (inconclusive).
With `O=C(NCCNS(=O)(=O)c1ccc(Cl)cc1)c1cc(OCC(F)(F)F)ccc1OCC(F)(F)F`, the AC50 is 7.08 µM (inconclusive) on Cytochrome P450 3A4, 0.0251 µM (inconclusive) at Cytochrome P450 2C9, 2.82 µM (inconclusive) on Cytochrome P450 1A2 and 3.16 µM (inconclusive) at Cytochrome P450 2D6.
Turning to `COc1cc2c(cc1OC)[C@]13CC[N@+]4(C)CC5=CCO[C@H]6CC(=O)N2[C@@H]1[C@@H]6[C@@H]5C[C@]34O`, at Cytochrome P450 3A4, the concentration at half-maximal activity (AC50) is 1 µM (inconclusive).
As for `Cc1noc(C)c1-c1cncnc1NCc1cccnc1`, the half-maximal activity concentration (AC50) at Cytochrome P450 2C19 (read-out: AC50) was 15.8 µM (inconclusive).
Take `Cc1ccc(C)c(NC(=S)N(CCc2nc3cc(C)c(C)cc3[nH]2)Cc2cccnc2)c1`: the AC50 at Cytochrome P450 2C19 (read-out: AC50) was 2 µM (inconclusive); on Cytochrome P450 1A2 it was 4.47 µM (inconclusive). The EC50 was 0.813 µM (active) in [3] and > 60 µM (not active) in data set [4].
Turning to `COc1ccccc1N1CCN(CCN2C(=O)CC3(CCCC3)CC2=O)CC1` [BMY-7378], the AC50 at Cytochrome P450 3A4 was 20 µM (inconclusive) and 39.8 µM (inconclusive).
Still for that read-out and setting: the result for `CC[C@@]1(O)C(=O)COc2c1cc1n(c2=O)Cc2c-1nc1cccc(C(C)C)c1c2[Si](C)(C)C` reads 15.8 µM (inconclusive).
For the compound `Cc1ccccc1CS(=O)(=O)CCC(=O)NCCCN1CCN(c2ccccc2F)CC1`, the AC50 entry is “inconclusive” at Cytochrome P450 2C19 and 5.62 µM (inconclusive) on Cytochrome P450 2C9.
In the case of `O=C(Nc1cccc(F)c1)N1CCC2(CC1)CCN(C(=O)c1ccncc1)CC2`, the AC50 on Cytochrome P450 3A4 was 12.6 µM (inconclusive).
Same read-out and setting: the result for `CCOc1ccc(C2=Nn3c(nnc3-c3ccco3)SC2)cc1` reads 15.8 µM (inconclusive).
Regarding `Cc1ccc(C(=O)Nc2cccnc2Oc2ccc(Cl)cc2)cc1`, the figures for the EC50 in data set [5], in [6] and in data set [7] were > 120 µM (not active), 17.6 µM (active) and > 120 µM (not active), respectively.
`C/C(=N\NC(=O)c1cccc(C)c1)c1cccc(NC(=O)c2ccco2)c1`: the half-maximal activity concentration (AC50) is 39.8 µM (inconclusive) at Cytochrome P450 2C19 (read-out: AC50), 39.8 µM (inconclusive) at Cytochrome P450 2C9 and 14.1 µM (inconclusive) on Cytochrome P450 1A2.

In general, AC50 refers to the concentration giving half of the maximal activity seen.
